Test results reported in US7332521B2, “Substituted indoles” (Wyeth, priority 2003, dated 2008).

Columns and labels:
[1] = molecular target: T1, recombinant human plasminogen activator inhibitor-1 (PAI-1) (Homo sapiens, UniProt P05121); test: Primary screen for the PAI-1 inhibition (chromogenic tPA activity); assay type: biochemical; settings: pH 6.6 buffer; for inhibition at 10 µM: 10 μM test compound; for inhibition at 25 µM: 25 μM test compound
T1 construct: purchased Molecular Innovations, Royal Oak, Mich
Protocol: Test compounds are dissolved in DMSO at a final concentration of 10 mM, then diluted 100× in physiologic buffer. The inhibitory assay is initiated by the addition of the test compound (1-100 μM final concentration, maximum DMSO concentration of 0.2%) in a pH 6.6 buffer containing 140 nM recombinant human plasminogen activator inhibitor-1 (PAI-1; Molecular Innovations, Royal Oak, Mich.). Following a 1 hour incubation at room temperature, 70 nM of recombinant human tissue plasminogen activator (tPA) is added, and the combination of the test compound, PAI-1 and tPA is incubated for an additional 30 minutes. Following the second incubation, Spectrozyme-tPA (American Diagnostica, Greenwich, Conn.), a chromogenic substrate for tPA, is added and absorbance read at 405 nm at 0 and 60 minutes. Relative PAI-1 inhibition is equal to the residual tPA activity in the presence of the test compound and PAI-1. Control treatments include the complete inhibition of tPA by PAI-1 at the molar ratio employed (2:1), and the absence of any effect of the test compound on tPA alone.

[2] = molecular target: human PAI-1 (Homo sapiens, UniProt P05121); test: Assay for determining IC50 of inhibition of PAI-1 (active PAI-1 bound to tPA-coated plate); assay type: binding; settings: pH 7.5 buffer
Protocol: This assay is based upon the non-SDS dissociable interaction between tPA and active PAI-1. Assay plates are initially coated with human tPA (10 μg/ml). Test compounds of the present invention are dissolved in DMSO at 10 mM, then diluted with physiologic buffer (pH 7.5) to a final concentration of 1-50 μM. Test compounds are incubated with human PAI-1 (50 ng/ml) for 15 minutes at room temperature. The tPA-coated plate is washed with a solution of 0.05% Tween 20 and 0.1% BSA, then the plate is blocked with a solution of 3% BSA. An aliquot of the subtituted indole/PAI-1 solution is then added to the tPA-coated plate, incubated at room temperature for 1 hour, and washed. Active PAI-1 bound to the plate is assessed by adding an aliquot of a 1:1000 dilution of the 33B8 monoclonal antibody against human PAI-1, and incubating the plate at room temperature for 1 hour (Molecular Innovations, Royal Oak, Mich.). […] The plate is incubated 45 minutes at room temperature, and color development is determined at OD405nm. The quantitation of active PAI-1 bound to tPA at varying concentrations of the test compound is used to determine the IC50. Results are analyzed using a logarithmic best-fit equation. The assay sensitivity is 5 ng/ml of human PAI-1 as determined from a standard curve ranging from 0-100 ng/ml.

T1 sequence (P05121 24-402): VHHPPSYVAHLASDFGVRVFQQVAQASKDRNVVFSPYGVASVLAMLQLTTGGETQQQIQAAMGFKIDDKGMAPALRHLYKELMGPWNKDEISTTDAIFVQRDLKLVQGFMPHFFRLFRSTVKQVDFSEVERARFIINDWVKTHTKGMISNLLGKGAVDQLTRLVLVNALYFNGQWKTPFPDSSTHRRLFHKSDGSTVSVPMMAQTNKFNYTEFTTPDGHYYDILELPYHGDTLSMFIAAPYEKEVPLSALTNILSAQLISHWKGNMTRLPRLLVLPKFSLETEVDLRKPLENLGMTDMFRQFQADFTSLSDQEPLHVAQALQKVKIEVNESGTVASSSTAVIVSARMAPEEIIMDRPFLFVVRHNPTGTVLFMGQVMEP
Sequence of human PAI-1 (P05121 24-402): as above

Compound | inhibition at 10 µM [1] [%] | inhibition at 25 µM [1] [%] | IC50 [2] [µM]
CC(C)(C)c1ccc(Nc2ccc3c(c2)c(-c2ccccc2)c(C(=O)O)n3Cc2ccc(-c3ccccc3)cc2)cc1 [Compound 5, 1-(1,1′-biphenyl-4-ylmethyl)-5-[(4-tert-butylphenyl)amino]-3-phenyl-1H-indole-2-carboxylic acid] | 52 | 80 | 12
O=C(O)c1c(-c2ccccc2)c2cc(Nc3ccc(-c4ccccc4)cc3)ccc2n1Cc1ccccc1 [Compound 3, 1-benzyl-5-(1,1′-biphenyl-4-ylamino)-3-phenyl-1H-indole-2-carboxylic acid] | 36 | 71 | –
O=C(O)c1c(-c2ccccc2)c2cc(Nc3cccc4c3sc3ccccc34)ccc2n1Cc1ccccc1 [Compound 4, 1-benzyl-5-(dibenzo[b,d]thien-4-ylamino)-3-phenyl-1H-indole-2-carboxylic acid] | 39 | 66 | –

Continued, values first:

inhibition at 10 µM [1] [%] | inhibition at 25 µM [1] [%] | IC50 [2] [µM] | Compound
45 | 73 | – | CC(C)(C)c1ccc(Nc2ccc3c(c2)c(-c2ccccc2)c(C(=O)O)n3Cc2ccccc2)cc1 [Compound 2, 1-benzyl-5-[(4-tert-butylphenyl)amino]-3-phenyl-1H-indole-2-carboxylic acid]
24 | 69 | – | Cc1cccc(Nc2ccc3c(c2)c(-c2ccccc2)c(C(=O)O)n3Cc2ccccc2)c1 [Compound 1, 1-benzyl-5-[(3-methylphenyl)amino]-3-phenyl-1H-indole-2-carboxylic acid]
